Where a name gives a salt, the structure may show the parent alone.
Legend:
[1] = test system: NASH mice; experiment: Macrophage infiltration in liver, F4/80 staining; format: in vivo, C57B1/6J mice
Experimental: NASH-induced inflammation and lipid accumulation in the liver promotes infiltration of monocytes from peripheral circulation into the liver. Hepatic inflammatory status of NASH mice was assessed by histological assessment of the presence of macrophage specific markers including F4/80 in liver sections. An F4/80 antibody stain used is to quantitatively differentiate monocyte/macrophage cell population in the blood and tissue: infiltrating monocytes are F4/80 bright whereas liver macrophages (Kupffer cells) are F4/80 dull. There was a striking increase in the number of F4/80 bright macrophages in the liver of the NASH mice (data not shown) that is attenuated by treatment with Compound 2 (42 days, 5 mg/Kg/day) treated NASH (FIG. 4).
F4/80 stain was used to illustrate macrophage infiltration in liver tissue. The following protocol was followed: • 1. Check the number of sections per slide; if there is 1 section then use 2 slides from the same group per staining run (1 for ctrl IgG and 1 for primary antibody of interest). If there are 2 sections per slide then use 1 slide per group per run and separate the sections using a PAP pen. • 2. De-paraffin slides through 3×5-minutes Propar clearant, and re-hydrate with 5-minutes each in decreased concentrations of reagent alcohol to water (100%, 95%, 75%, water). • 3. Use Citrate buffer pH 6.0 for HIER (heat-induced epitope retrieval). […]

[2] = test system: liver of NASH mice; experiment: Liver gene expression by Affymetrix microarray in NASH mice; format: in vivo, C57B1/6J mice; settings: liver mRNA, 10 mg/kg/day, 35 days
Experimental: Gene expression was analyzed using Affynmatrix microarray followed by GOBY software analyses. Data (Table 5, below) represent average fold change in gene expression in the Compound 2/vehicle group.
Gene expression was analyzed using Affynmatrix microarray followed by GOBY software analyses. Data (Table 6, below) represent average fold change in gene expression in the Compound 2/vehicle group.
Animals were placed in Surgivet/ANESCO ISOTECY chamber (Vetequip Incorporated, Waukesha, Wis.) filled with Isoflurane (1-chloro-2,2,2-trifluoroethyl difluoromethyl ether, CAS#26675-46-7), USP Liquid for Inhalation (Baxter, Deerfield, Ill., Cat #10019-360-40) for anesthetization. Cardiac blood is taken with BD 1 mL Syringe Tuberculin Slip Tip (Becton, Dickinson & Company, Franklin Lakes, N.J., Cat #309602) with B-D25G 5/8 needle (Becton Dickinson, Franklin Lakes, N.J., Cat #305122) and was saved into Microtainer brand tube with EDTA (Becton, Dickinson and Company, Cat #365973). The heart, liver, kidney, adipose (white and brown) and muscle were collected using fine forceps and fine scissors. Tissues were stored in aluminum foils and flash frozen in liquid nitrogen for further analyses. ˜100 mg of heart, liver, adipose (white) were saved in tubes containing 1 mL RNAlater RNA Stabilization Reagent (Qiagen, Valencia, Calif., Cat #76106) and flash frozen in liquid nitrogen for gene array analyses. The liver, muscle and adipose (white) were fixed in 10% Zinc Formalin (Fisher Diagnostics, Middletown, Va., Cat#032-065, CAS #50-00-0) for histology analyses. In addition, the liver and muscle were frozen in Cryomold Standard Disposable Specimen Mold 25 mm×20 mm×5 mm (Sakura Finetechnical U.S.A., Inc., Torrance, Calif., Cat #4557) with O.C.T Compound (Sakura Finetechnical U.S.A., Inc., Torrance, Calif., Cat #4583) and frozen on dry ice mixed with 2-Methylbutane (Isopentane) (Sigma-Aldrich, St. Louis, Mo., CAS #78-78-4, Cat #270342-2L.
Total RNA was extracted using the RNeasy mini protocol (Qiagen, Cat: 74106), gene array analyses was performed using Mouse Genome 430.2.0 Affymetrix CHIP and VAMPIRE analyses software at the Veterans Affair, UCSD core facility, UCSD, San Diego, Calif.

## C[C@@H]1CN(Cc2ccc(OC(F)(F)F)cc2)C[C@H](C)N1S(=O)(=O)c1cccc2c1C[C@@H](C(=O)O)C2 [Compound 2, (S)-4-[cis-2,6-Dimethyl-4-(4-trifluoromethoxy-benzyl)-piperazine-1-sulfonyl]-indan-2-carboxylic acid tosylate]
[1]; 42 days, 5 mg/Kg/day, FIG. 4
  number of F4/80 bright macrophages in the liver of the NASH mice: attenuated
[1]; oral administration, NASH mice, summary
  macrophage infiltration in the liver: attenuated macrophage infiltration
[2]
  S100 A6 (inflammatory marker) gene expression vs. vehicle: reduction
[2]; 4 hours post dosing, fed state
  CD14 (Monocyte/Macrophage marker) gene expression, Fold change over vehicle: −2 fold
  GADD45 (Inflammatory marker) gene expression, Fold change over vehicle: 8 fold
  ICAM 1 (Inflammatory marker) gene expression, Fold change over vehicle: −2.1 fold
  MARCO (Monocyte/Macrophage marker) gene expression, Fold change over vehicle: −2.5 fold
  Orosomucoid 2 (Acute Phase Reactant Protein) gene expression, Fold change over vehicle: −2.4 fold
  Serum myeloid A1 (Acute Phase Reactant Protein) gene expression, Fold change over vehicle: −1.9 fold
  Serum myeloid A2 (Acute Phase Reactant Protein) gene expression, Fold change over vehicle: −2.2 fold
  CTGF gene expression, Fold change over vehicle: Not changed
  Col1a1 gene expression, Fold change over vehicle: −6.3 fold
  Col1a2 gene expression, Fold change over vehicle: −3 fold
  Col3a1 gene expression, Fold change over vehicle: −3 fold
  Col5a2 gene expression, Fold change over vehicle: −2.2 fold
  Col6a2 gene expression, Fold change over vehicle: −8.9 fold
  Fibronectin gene expression, Fold change over vehicle: Not changed
  Timp 1 gene expression, Fold change over vehicle: −4.5 fold
  Timp 2 gene expression, Fold change over vehicle: Not changed
  Vimentin gene expression, Fold change over vehicle: −2.3 fold
